Reference: US20090093448A1, “19-NOR-PROGESTERONE FOR CONTRACEPTION” (GRUNENTHAL GMBH, priority 2007, published 2009)
Structures can show the parent of a compound that is named as a salt.

Key:
[1] = biological target: T1, human progesterone receptor (Homo sapiens, UniProt P06401); test: Relative binding affinity for the human progesterone receptor; settings: for Relative binding affinity to progesterone receptor: progesterone as reference = 100
T1 sequence (P06401 1-933): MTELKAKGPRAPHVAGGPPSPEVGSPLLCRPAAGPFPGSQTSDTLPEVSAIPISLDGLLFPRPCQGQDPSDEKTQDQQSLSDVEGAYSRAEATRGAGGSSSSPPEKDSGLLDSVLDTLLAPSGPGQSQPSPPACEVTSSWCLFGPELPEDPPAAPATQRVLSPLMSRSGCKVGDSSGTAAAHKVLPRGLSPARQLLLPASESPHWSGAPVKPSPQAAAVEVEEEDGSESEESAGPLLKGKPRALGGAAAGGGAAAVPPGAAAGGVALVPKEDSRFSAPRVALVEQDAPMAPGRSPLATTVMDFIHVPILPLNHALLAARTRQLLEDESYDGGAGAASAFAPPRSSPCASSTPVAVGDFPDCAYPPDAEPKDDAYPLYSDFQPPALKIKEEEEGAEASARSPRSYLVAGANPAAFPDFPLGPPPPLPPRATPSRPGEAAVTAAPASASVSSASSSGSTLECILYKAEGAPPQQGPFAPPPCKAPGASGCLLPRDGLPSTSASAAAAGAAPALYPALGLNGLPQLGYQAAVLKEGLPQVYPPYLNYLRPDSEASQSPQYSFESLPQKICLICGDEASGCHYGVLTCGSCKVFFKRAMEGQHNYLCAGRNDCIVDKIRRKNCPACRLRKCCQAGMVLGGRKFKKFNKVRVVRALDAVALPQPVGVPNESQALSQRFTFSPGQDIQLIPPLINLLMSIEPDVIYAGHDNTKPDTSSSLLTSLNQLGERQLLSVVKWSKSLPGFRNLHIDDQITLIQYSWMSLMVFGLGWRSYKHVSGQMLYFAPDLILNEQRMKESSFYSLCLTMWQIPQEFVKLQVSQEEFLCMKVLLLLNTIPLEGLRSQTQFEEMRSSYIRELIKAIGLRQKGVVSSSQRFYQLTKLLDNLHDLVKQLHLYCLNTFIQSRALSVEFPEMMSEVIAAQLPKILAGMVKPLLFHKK

[2] = system: endometrium; test: McPhail test (progestational proliferation of the endometrium); type: in vivo, rabbits; settings: for Mean McPhail Score (max. 4.0): estrone-primed immature female rabbits, five daily doses
Procedure: Trimegestone sulfate was tested in the McPhail test, which is a test for progesterone and like substances. Immature female rabbits are treated with 150 IU of estrone over a period of 6 days. The test material is then given in five daily subcutaneous doses. Progestational proliferation of the endometrium is noted and the results estimated according to a scale from 0 to 4.0.

Row | SMILES | Relative binding affinity to progesterone receptor [1] | Mean McPhail Score (max. 4.0) ([2]; 0.1 mg/kg/day s.c.) | Mean McPhail Score (max. 4.0) ([2]; 1.0 mg/kg/day s.c.) | relative affinity for the progesterone receptor ([1]; % of the affinity of natural progesterone) [%] | Mean McPhail Score (max. 4.0) ([2]; 0.0001 mg/kg/day s.c.) | Mean McPhail Score (max. 4.0) ([2]; 0.001 mg/kg/day s.c.) | Mean McPhail Score (max. 4.0) ([2]; 0.01 mg/kg/day s.c.) | Mean McPhail Score (max. 4.0) ([2]; 10.0 mg/kg/day s.c.) | endometrium transforming effects in the McPhail test ([2]; s.c., 0.0001 to 10.0 mg/kg/day, result in words)
1 | CC(O)C(=O)C1(C)CCC2C3CCC4=CC(=O)CC(O)C4=C3CCC21C (stereo not drawn) [1β-OH trimegestone, 1β-hydroxytrimegestone, reference compound] | 64 | – | – | – | – | – | – | – | –
2 | CC(O)C(=O)C1(C)CCC2C3CC(O)C4=CC(=O)CCC4=C3CCC21C (stereo not drawn) [6β-OH trimegestone, 6β-hydroxytrimegestone, reference compound] | 12 | – | – | – | – | – | – | – | –
3 | CC(=O)[C@H]1CC[C@H]2[C@@H]3CCC4=CC(=O)CC[C@]4(C)[C@H]3CC[C@]12C [Progesterone] | – | 2.25 | 3.75 | – | – | – | – | – | –
4 | C[C@H](OS(=O)(=O)O)C(=O)[C@@]1(C)CCC2C3CCC4=CC(=O)CCC4=C3CC[C@@]21C (stereo partly shown) [Trimegestone sulfate, Trimegestone sulfate, pyridinium salt] | 40 | 3.31 | 2.93 | 40 | 0.75 | 0.88 | 2.1 | 3.68 | dose-dependent potent endometrium transforming effects
